Reference: patent US20100285959A1, “HERBICIDAL MIXTURES” (priority 2006, published 2010)

Experiments:
[1] = test system: Brazilian crabgrass (DIGHO); assay: Test 11 field trial, preemergence; type: in vivo, Digitaria horizontalis; design: scale not given here; settings: alone or + atrazine 1500 or metolachlor 2500
From the text: (§1) Corn seeds (hybrid ‘Pioneer 3041’) were planted in mid spring season, 5 cm deep in a clay soil having 2.6% organic matter and a pH of 5.6. Plots were 8 m long by 1.5 m wide with rows spaced 80 cm apart. Seeds were spaced 15 cm apart within the rows. The field was managed using conventional tillage practices. […] Treatments consisted of Compound 2 or
(§2) Goosegrass was not evaluated 16 or 91 days after application.

arrowleaf sida (SIDRH) = assay: Test 11 field trial, preemergence; type: in vivo, Sida rhombifolia
From the text: as §1, §2

goosegrass (ELEIN) = assay: Test 11 field trial, preemergence; type: in vivo, Eleusine indica
From the text: as §1, §2

corn (ZEAMD) = assay: Test 10 field trial, preemergence; type: in vivo, Zea mays ssp. indentata; settings: 28 DAA; g a.i./ha: Cpd 2 100, Atrazine 1680, S-Metolachlor 1870
From the text: (§3) Corn seeds (hybrid ‘Pioneer 33P65 RR’) were planted in mid spring season, 2.5 cm deep in a silt loam soil. Plots were 9.1 m long by 3.0 m wide with rows spaced 76 cm apart. The field was managed using conventional tillage practices. […] Results are the means of the three replicates.

[2] = test system: Pennsylvania smartweed (POLPY); assay: Test 8 field trial, preemergence; type: in vivo, Polygonum pensylvanicum; settings: 29 DAA; g a.i./ha: Cpd 2 100, Atrazine 1680, S-Metolachlor 1870
From the text: (§4) Corn seeds (hybrid ‘Pioneer 31G96’) were planted in mid spring season, 3.8 cm deep in a clay loam soil having 2% organic matter and a pH of 6.6. Plots were 6.1 m long by 3.0 m wide with rows spaced 76 cm apart. Seeds were spaced 15 cm apart within the rows. The field was managed using conventional tillage practices. […] A few of the weed species could not be evaluated at every timing. […] Results are the means of the three replicates.

giant foxtail (SETFA) = assay: Test 10 field trial, preemergence; type: in vivo, Setaria faberi; settings: 28 DAA; g a.i./ha: Cpd 2 100, Atrazine 1680, S-Metolachlor 1870
From the text: as §3

velvetleaf (ABUTH) [3] = assay: Test 10 field trial, preemergence; type: in vivo, Abutilon theophrasti; settings: 28 DAA; g a.i./ha: Cpd 2 100, Atrazine 1680, S-Metolachlor 1870
From the text: as §3

common cocklebur (XANST) = assay: Test 10 field trial, preemergence; type: in vivo, Xanthium strumarium ssp. strumarium; settings: 28 DAA; g a.i./ha: Cpd 2 100, Atrazine 1680, S-Metolachlor 1870
From the text: as §3

velvetleaf (ABUTH) [4] = assay: Test 8 field trial, preemergence; type: in vivo, Abutilon theophrasti; settings: g a.i./ha: Cpd 2 100, Atrazine 1680, S-Metolachlor 1870
From the text: as §4

field pennycress (THLAR) = assay: Test 1 field trial, preemergence; type: in vivo, Thlaspi arvense; settings: 28 DAA; g a.i./ha: Atrazine 1680; S-Metolachlor 1870
From the text: (§5) Corn seeds (hybrid ‘Pioneer 34N43’) were planted in mid spring season, 3.8 cm deep in a silt loam soil having 4.6% organic matter and a pH of 6. Plots were 10.7 m long by 1.5 m wide with rows spaced 76 cm apart. Seeds were spaced 18 cm apart within the rows. The field was managed using conventional tillage practices. […] Results are summarized in Table 1 and are the means of the three replicates. […] Colby's Equation (Colby, S. R. “Calculating Synergistic and Antagonistic Responses of Herbicide Combinations,” Weeds, 15(1), pp 20-22 (1967)) calculates the expected additive effect of herbicidal mixtures, and for two active ingredients is of the form:
(§6) Pa+b=Pa+Pb−(PaPb/100) • wherein Pa+b is the percentage effect of the mixture expected from additive contribution of the individual components, • Pa is the observed percentage effect of the first active ingredient at the same use rate as in the mixture, and • Pb is the observed percentage effect of the second active ingredient at the same use rate as in the mixture.

yellow foxtail (SETLU) = assay: Test 1 field trial, preemergence; type: in vivo, Setaria glauca; settings: 56 DAA; g a.i./ha: Atrazine 1680; S-Metolachlor 1870
From the text: as §5, §6

[5] = 30 DAA, Cpd 2/Cpd 1 at 62 g a.i./ha, alone or + atrazine 1500 or metolachlor 2500
[6] = 30 DAA, Cpd 2/Cpd 1 at 125 g a.i./ha, alone or + atrazine 1500 or metolachlor 2500
[7] = 44 DAA, 62 g a.i./ha, scale 0 to 100
[8] = 44 DAA, 125 g a.i./ha, scale 0 to 100
[9] = 62 DAA, 62 g a.i./ha, scale 0 to 100
[10] = 62 DAA, 125 g a.i./ha, scale 0 to 100

## Nc1nc(C2CC2)nc(C(=O)O)c1Cl [Compound 1, 6-amino-5-chloro-2-cyclopropyl-4-pyrimidinecarboxylic acid]
[1]; 16 DAA, Cpd 2/Cpd 1 at 62 g a.i./ha
  DIGHO Obs: 0
[1]; 16 DAA, Cpd 2/Cpd 1 at 125 g a.i./ha
  DIGHO Obs: 0
[1]; 30 DAA, Cpd 2/Cpd 1 at 62 g a.i./ha
  DIGHO Obs: 0
[1]; 30 DAA, Cpd 2/Cpd 1 at 125 g a.i./ha
  DIGHO Obs: 20
[1]; 44 DAA, Cpd 2/Cpd 1 at 62 g a.i./ha
  DIGHO Obs: 0
[1]; 44 DAA, Cpd 2/Cpd 1 at 125 g a.i./ha
  DIGHO Obs: 20
[1]; 62 DAA, Cpd 2/Cpd 1 at 62 g a.i./ha
  DIGHO Obs: 0
[1]; 62 DAA, Cpd 2/Cpd 1 at 125 g a.i./ha
  DIGHO Obs: 0
[1]; 91 DAA, Cpd 2/Cpd 1 at 62 g a.i./ha
  DIGHO Obs: 0
[1]; 91 DAA, Cpd 2/Cpd 1 at 125 g a.i./ha
  DIGHO Obs: 0
Arrowleaf sida (SIDRH); 16 DAA, Cpd 2/Cpd 1 at 62 g a.i./ha, alone or + atrazine 1500 or metolachlor 2500
  SIDRH Obs: 40
Arrowleaf sida (SIDRH); 16 DAA, Cpd 2/Cpd 1 at 125 g a.i./ha, alone or + atrazine 1500 or metolachlor 2500
  SIDRH Obs: 75
Arrowleaf sida (SIDRH); [5]
  SIDRH Obs: 60
Arrowleaf sida (SIDRH); [6]
  SIDRH Obs: 65
Arrowleaf sida (SIDRH); [7]
  SIDRH Obs: 75
Arrowleaf sida (SIDRH); [8]
  SIDRH Obs: 95
Arrowleaf sida (SIDRH); [9]
  SIDRH Obs: 40
Arrowleaf sida (SIDRH); [10]
  SIDRH Obs: 95
Arrowleaf sida (SIDRH); 91 DAA, 62 g a.i./ha, scale 0 to 100
  SIDRH Obs: 0
Arrowleaf sida (SIDRH); 91 DAA, 125 g a.i./ha, scale 0 to 100
  SIDRH Obs: 100
Goosegrass (ELEIN); [5]
  ELEIN Obs: 0
Goosegrass (ELEIN); [6]
  ELEIN Obs: 20
Goosegrass (ELEIN); [7]
  ELEIN Obs: 0
Goosegrass (ELEIN); [8]
  ELEIN Obs: 0
Goosegrass (ELEIN); [9]
  ELEIN Obs: 0
Goosegrass (ELEIN); [10]
  ELEIN Obs: 0

## CCc1cccc(C)c1N(C(=O)CCl)[C@@H](C)COC [S-Metolachlor, S-metolachlor, reference compound]
Corn (ZEAMD)
  ZEAMD Obs: 0%
[2]
  POLPY Obs: 100%
Giant foxtail (SETFA)
  SETFA Obs: 63%
Velvetleaf (ABUTH) [3]
  ABUTH Obs: 37%
Common cocklebur (XANST)
  XANST Obs: 30%
Velvetleaf (ABUTH) [4]; 19 DAA
  ABUTH Obs: 28%
Velvetleaf (ABUTH) [4]; 29 DAA
  ABUTH Obs: 42%
Velvetleaf (ABUTH) [4]; 56 DAA
  ABUTH Obs: 18%
Field pennycress (THLAR)
  THLAR Obs: 58
Yellow foxtail (SETLU)
  SETLU Obs: 100
